Data: the kinase profiling compilation of Christmann-Franck et al. (2016)

How the values were obtained:
Assay in all cases: KINOMEscan competition binding
Conditions in all cases: compound 10.0 µM
[1] = tested on: ABL1 (human), P00519 [M351T]
[2] = tested on: ABL1 (human), P00519 [Q252H]
[3] = tested on: ABL1 (human), P00519 [T315I]
[4] = tested on: EIF2AK4 KD2 (human), Q9P2K8 [S808G]
[5] = tested on: FLT3 (human), P36888 [ITD]
[6] = tested on: FLT3 (human), P36888 [K663Q]
[7] = tested on: FLT3 (human), P36888 [N841I]
[8] = tested on: KIT (human), P10721 [D816V]
[9] = tested on: KIT (human), P10721 [V559D/T670I]
[10] = tested on: KIT (human), P10721 [V559D]
[11] = tested on: PIK3CA (human), P42336 [C420R]
[12] = tested on: PIK3CA (human), P42336 [E545A]
[13] = tested on: PIK3CA (human), P42336 [E545K]
[14] = tested on: PIK3CA (human), P42336 [H1047Y]
[15] = tested on: PIK3CA (human), P42336 [I800L]
[16] = tested on: PIK3CA (human), P42336 [Q546K]
[17] = tested on: ABL1 (human), P00519 [E255K]
[18] = tested on: EGFR (human), P00533 [746-750 del]
[19] = tested on: EGFR (human), P00533 [G719S]
[20] = tested on: EGFR (human), P00533 [L861Q]
[21] = tested on: EGFR (human), P00533 [P753S; 747-752 del]

PIK3CA (human), P42336 [H1047Y], sequence (P42336 whole entry H1047Y, looked up): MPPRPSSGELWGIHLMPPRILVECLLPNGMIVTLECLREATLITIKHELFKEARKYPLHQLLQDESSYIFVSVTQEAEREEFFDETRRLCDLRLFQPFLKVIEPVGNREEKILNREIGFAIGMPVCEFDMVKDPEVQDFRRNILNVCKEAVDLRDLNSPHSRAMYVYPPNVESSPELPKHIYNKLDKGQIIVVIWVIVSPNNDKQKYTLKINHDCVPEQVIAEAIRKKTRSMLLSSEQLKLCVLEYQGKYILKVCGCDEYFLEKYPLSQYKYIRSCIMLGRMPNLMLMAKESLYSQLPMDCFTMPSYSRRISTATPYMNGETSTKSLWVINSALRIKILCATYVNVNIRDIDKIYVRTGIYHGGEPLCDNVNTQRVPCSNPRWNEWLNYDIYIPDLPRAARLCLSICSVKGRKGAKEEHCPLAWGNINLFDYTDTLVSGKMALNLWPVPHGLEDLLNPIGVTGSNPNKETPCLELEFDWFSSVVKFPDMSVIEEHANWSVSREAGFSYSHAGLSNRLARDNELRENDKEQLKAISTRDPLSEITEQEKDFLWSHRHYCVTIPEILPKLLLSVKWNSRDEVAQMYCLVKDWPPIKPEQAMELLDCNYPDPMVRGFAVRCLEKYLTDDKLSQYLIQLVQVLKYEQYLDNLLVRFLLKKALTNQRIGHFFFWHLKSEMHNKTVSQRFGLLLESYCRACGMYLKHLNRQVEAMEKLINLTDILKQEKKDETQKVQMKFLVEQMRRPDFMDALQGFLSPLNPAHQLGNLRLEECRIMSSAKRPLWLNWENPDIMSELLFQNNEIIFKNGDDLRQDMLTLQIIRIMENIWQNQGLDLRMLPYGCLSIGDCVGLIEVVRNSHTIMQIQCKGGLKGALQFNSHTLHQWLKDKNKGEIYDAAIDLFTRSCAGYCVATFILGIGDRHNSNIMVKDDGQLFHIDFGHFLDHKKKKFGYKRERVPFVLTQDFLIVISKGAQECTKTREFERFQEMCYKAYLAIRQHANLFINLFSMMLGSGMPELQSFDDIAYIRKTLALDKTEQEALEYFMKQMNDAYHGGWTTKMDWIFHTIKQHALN
KIT (human), P10721 [V559D/T670I], sequence (P10721 whole entry V559D/T670I, looked up): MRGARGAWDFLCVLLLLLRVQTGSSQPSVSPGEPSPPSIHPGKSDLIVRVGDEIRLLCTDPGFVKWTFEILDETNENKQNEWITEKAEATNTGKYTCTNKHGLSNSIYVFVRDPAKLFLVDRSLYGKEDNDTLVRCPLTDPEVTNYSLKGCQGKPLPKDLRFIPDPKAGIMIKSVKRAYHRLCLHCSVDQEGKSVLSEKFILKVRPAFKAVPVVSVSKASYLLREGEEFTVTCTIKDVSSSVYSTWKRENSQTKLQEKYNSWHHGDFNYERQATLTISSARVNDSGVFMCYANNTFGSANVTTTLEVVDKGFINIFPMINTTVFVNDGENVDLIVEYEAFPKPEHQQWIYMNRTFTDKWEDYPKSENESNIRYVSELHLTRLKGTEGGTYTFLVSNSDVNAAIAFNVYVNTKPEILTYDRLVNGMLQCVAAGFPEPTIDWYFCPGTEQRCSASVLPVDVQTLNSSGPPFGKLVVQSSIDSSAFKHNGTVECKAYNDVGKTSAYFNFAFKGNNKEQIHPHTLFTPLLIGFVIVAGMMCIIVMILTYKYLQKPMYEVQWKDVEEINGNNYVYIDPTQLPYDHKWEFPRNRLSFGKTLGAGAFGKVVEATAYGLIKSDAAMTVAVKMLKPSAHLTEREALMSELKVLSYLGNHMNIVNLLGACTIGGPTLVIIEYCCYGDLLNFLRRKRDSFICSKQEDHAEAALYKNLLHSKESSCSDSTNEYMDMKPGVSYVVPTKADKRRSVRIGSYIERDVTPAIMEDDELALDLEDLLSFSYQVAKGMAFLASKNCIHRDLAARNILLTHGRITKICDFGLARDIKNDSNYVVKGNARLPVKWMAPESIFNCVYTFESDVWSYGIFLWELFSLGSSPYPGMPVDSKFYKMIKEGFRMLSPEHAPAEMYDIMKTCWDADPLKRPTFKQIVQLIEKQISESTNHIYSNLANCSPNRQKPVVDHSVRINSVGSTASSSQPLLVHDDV
KIT (human), P10721 [D816V], sequence (P10721 whole entry D816V, looked up): as the sequence (P10721 whole entry V559D/T670I, looked up) above, with D559V, I670T, D816V counted along it
KIT (human), P10721 [V559D], sequence (P10721 whole entry V559D, looked up): as the sequence (P10721 whole entry V559D/T670I, looked up) above, with I670T counted along it
PIK3CA (human), P42336 [E545A], sequence (P42336 whole entry E545A, looked up): as the sequence (P42336 whole entry H1047Y, looked up) above, with E545A, Y1047H counted along it
PIK3CA (human), P42336 [E545K], sequence (P42336 whole entry E545K, looked up): as the sequence (P42336 whole entry H1047Y, looked up) above, with E545K, Y1047H counted along it
EIF2AK4 KD2 (human), Q9P2K8 [S808G], sequence (Q9P2K8 whole entry S808G, looked up): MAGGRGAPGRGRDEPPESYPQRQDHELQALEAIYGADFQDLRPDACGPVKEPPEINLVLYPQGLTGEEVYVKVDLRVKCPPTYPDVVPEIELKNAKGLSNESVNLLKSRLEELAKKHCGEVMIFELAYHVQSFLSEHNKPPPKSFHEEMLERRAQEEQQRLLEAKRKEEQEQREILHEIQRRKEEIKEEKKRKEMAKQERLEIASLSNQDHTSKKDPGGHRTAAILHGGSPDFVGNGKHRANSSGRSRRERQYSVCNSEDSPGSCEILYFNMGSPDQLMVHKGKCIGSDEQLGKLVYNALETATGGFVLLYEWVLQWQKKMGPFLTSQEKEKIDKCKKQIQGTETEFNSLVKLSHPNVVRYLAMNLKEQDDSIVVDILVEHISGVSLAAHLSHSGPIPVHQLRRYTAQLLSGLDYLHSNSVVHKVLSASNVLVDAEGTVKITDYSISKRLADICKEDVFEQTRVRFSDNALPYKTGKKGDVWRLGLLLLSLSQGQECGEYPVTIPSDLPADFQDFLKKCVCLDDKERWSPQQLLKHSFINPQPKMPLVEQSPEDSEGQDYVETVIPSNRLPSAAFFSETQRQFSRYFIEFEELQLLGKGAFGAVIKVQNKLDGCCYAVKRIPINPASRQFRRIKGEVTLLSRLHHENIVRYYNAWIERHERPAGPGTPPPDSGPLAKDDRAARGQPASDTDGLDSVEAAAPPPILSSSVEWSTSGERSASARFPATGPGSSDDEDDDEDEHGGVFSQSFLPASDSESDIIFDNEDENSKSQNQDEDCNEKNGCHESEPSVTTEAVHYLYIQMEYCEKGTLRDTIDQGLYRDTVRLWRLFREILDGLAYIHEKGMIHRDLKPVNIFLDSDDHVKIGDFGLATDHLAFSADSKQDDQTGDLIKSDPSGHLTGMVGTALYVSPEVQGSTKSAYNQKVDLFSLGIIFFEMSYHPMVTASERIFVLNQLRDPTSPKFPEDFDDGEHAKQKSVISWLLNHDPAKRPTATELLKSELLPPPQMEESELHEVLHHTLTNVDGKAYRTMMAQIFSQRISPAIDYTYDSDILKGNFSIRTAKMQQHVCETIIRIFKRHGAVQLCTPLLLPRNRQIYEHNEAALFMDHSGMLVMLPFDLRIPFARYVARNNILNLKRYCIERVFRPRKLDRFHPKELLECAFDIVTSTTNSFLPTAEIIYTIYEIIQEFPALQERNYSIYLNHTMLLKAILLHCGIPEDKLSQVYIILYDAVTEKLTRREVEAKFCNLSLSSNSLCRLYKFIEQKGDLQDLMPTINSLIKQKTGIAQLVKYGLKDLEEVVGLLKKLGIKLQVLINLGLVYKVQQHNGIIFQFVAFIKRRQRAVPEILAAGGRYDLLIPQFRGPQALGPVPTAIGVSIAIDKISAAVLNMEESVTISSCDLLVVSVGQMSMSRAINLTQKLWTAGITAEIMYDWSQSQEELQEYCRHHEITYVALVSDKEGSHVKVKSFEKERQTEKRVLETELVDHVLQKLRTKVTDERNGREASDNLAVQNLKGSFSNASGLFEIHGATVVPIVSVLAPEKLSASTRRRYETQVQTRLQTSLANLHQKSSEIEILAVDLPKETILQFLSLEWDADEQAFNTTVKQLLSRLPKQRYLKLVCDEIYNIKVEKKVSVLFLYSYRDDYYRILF
PIK3CA (human), P42336 [Q546K], sequence (P42336 whole entry Q546K, looked up): as the sequence (P42336 whole entry H1047Y, looked up) above, with Q546K, Y1047H counted along it
PIK3CA (human), P42336 [C420R], sequence (P42336 whole entry C420R, looked up): as the sequence (P42336 whole entry H1047Y, looked up) above, with C420R, Y1047H counted along it
PIK3CA (human), P42336 [I800L], sequence (P42336 whole entry I800L, looked up): as the sequence (P42336 whole entry H1047Y, looked up) above, with I800L, Y1047H counted along it

| kinase still bound, per cent of control [1] | kinase still bound, per cent of control [2] | kinase still bound, per cent of control [3] | kinase still bound, per cent of control [4] | kinase still bound, per cent of control [5] | kinase still bound, per cent of control [6] | kinase still bound, per cent of control [7] | kinase still bound, per cent of control [8] | kinase still bound, per cent of control [9] | kinase still bound, per cent of control [10] | kinase still bound, per cent of control [11] | kinase still bound, per cent of control [12] | kinase still bound, per cent of control [13] | kinase still bound, per cent of control [14] | kinase still bound, per cent of control [16] | Compound | further results |
| --- | --- | --- | --- | --- | --- | --- | --- | --- | --- | --- | --- | --- | --- | --- | --- | --- |
| 39% | 32% | 0.6% | 62% | 2.5% | 1% | 0.15% | 23% | 0% | 0% | 72% | 31% | 100% | 30% | 15% | CCN(CCO)CCCOc1ccc2c(Nc3cc(CC(=O)Nc4cccc(F)c4)[nH]n3)ncnc2c1 | kinase still bound, per cent of control [15]: 100% |
| 100% | 100% | 100% | 100% | 100% | 100% | 100% | 100% | 100% | 100% | 100% | 100% | 100% | 100% | 100% | CCOc1cc(N2CCC(O)CC2)ccc1Nc1ncc2c(n1)N(C)c1ccccc1C(=O)N2C | kinase still bound, per cent of control [17]: 100%; kinase still bound, per cent of control [18]: 100%; kinase still bound, per cent of control [19]: 100%; kinase still bound, per cent of control [20]: 100%; kinase still bound, per cent of control [21]: 100% |
